Consider four compounds from US8337900B2, “Reverse-phase microcapsules for active ingredients, simplified process of manufacture thereof and combined formulation WDG-CS, ZC, EC-SC, and CX” (priority 2006, dated 2012).

The nature of data set [1]: Accelerated heat stability test (54° C.), physical stability and chemical degradation by HPLC. It is filed as physicochemical. As to conditions: NPμ in a CX-w; results and process not shown. How it is done:
Both formulations were submitted to accelerated heat stability tests (at 54° C. for 2 weeks).
Also, presence of unencapsulated material—water soluble a.i.—was below 0.1%.
These tests were performed with HPLC and standard methods of analysis under Good Laboratory Practice conditions.

For data set [2] the following is noted: cited from earlier work.
Data set [3] can be described thus: Stability to hydrolysis versus commercial formulations. It is filed as physicochemical. To be noted: in a CX, microencapsulated in NPμ and combined with sulfosate. The source says:
This refers to the typical variations: thifensulfuron-ethyl<→thifensulfuron, etc.

In the case of `COC(=O)c1ccccc1S(=O)(=O)NC(=O)N(C)c1nc(C)nc(OC)n1` [tribenuron-methyl], the “degradation inhibition by microencapsulation” value in data set [1] is listed as “equally observed”.
For `CC(C)(C)C(O)(CCc1ccc(Cl)cc1)Cn1cncn1` (centres unmarked) [tebuconazole], the solubility in hexane result in data set [2] (hexane) is recorded as “lower than 0.1 g/L”.
With `O=C(O)c1cc(Oc2ccc(C(F)(F)F)cc2Cl)ccc1[N+](=O)[O-]` [acifluorfen-sodium], the solubility in isooctanol entry in data set [2] (isooctanol) is reported as “around 6 g/L”. Besides, in data set [2] (water), the solubility in water result was “about 60 g/L”.
Consider `COc1cc(OC)nc(NC(=O)NS(=O)(=O)c2ncccc2C(=O)N(C)C)n1` [nicosulfuron], for which the “more stable to hydrolysis than current commercial formulations” value in data set [3] is recorded as “at least 20 % times”.
